Results as given in patent US5085995A, “Method for producing saffron stigma-like tissue and method for producing useful components from saffron stigma-like tissue” (Somar Corporation, priority 1989, dated 1992).

Assays:
Type in all cases: cell-based
[1] = tested on: corolla tube of a saffron; assay: Tissue culture of saffron corolla tube with alanine; visual rating of stigma-like tissue (Example 5); conditions: Ki 2 ppm, Linsmaier-Skoog medium, scale 0-10
Description: (§1) The relative amount of the stigma-like tissue was visually determined and rated according to an 11-part divided scale, taking an amount corresponding to the amount of naturally-occurring three stigmata containing saffron pigment as 10, nil as 0, and equally dividing the interval therebetween.
(§2) The relative color density of the stigma-like tissue was visually determined, and rated according to an 11-part divided scale, taking a density corresponding to the density of a naturally-occurring stigma containing saffron pigment as 10 and colorlessness as 0, and equally dividing the interval therebetween.
(§3) Guaran powder was then added to the medium in a concentration of 0.2% by weight. The medium was sterilized at 120° C. for 20 minutes in an autoclave. The sterilized medium was aloquated into sterile plastic plates having a diameter of 55 mm, followed by cooling to solidify.
(§4) A bud of a saffron flower before opening was harvested, sterilized by soaking in a 0.5 vol% sodium hypochlorite aqueous solution for 10 minutes, and washed with water. The ovary portion of the bud was taken out and cut to pieces of about 8 mm. Each cut piece was seeded on each of the above-prepared solid media.
(§5) After 7 weeks of culturing, the tissue cultures were visually observed and evaluated in the same manner as in Example 1.
A saffron ovary was cultured in the same manner as in Example 3, except for replacing the MS medium with a Linsmaier-Skoog medium to which Ki, NAA and alanine were added in the concentrations shown in Table 11.
The procedure of Example 4 was repeated except for replacing the ovary with a corolla tube of a saffron.

[2] = tested on: female organ and/or corolla tube of saffron; assay: Tissue culture of female organ and/or corolla tube of saffron in the presence of alanine; conditions: compared with cultures in the absence of alanine
Description: In this embodiment, a female organ and/or a corolla tube of a saffron flower is tissue-cultured in a medium containing a plant hormone and alanine in a bright or dark room.
Female organs and/or corolla tubes to be cultured are harvested from saffron flowers before opening, i.e., flowers in the bud and subjected to tissue culture in the manner as in the first embodiment by using a medium containing alanine to produce and proliferate the stigma-like tissue. When using female organs and/or corolla tubes harvested after flower opening, the amount of the stigma-like tissue produced tends to be reduced.
In cases where female organs and/or corolla tubes are cultured in the second embodiment, the culture medium should further contain alanine to accelerate the production of the stigma-like tissue. Alanine is preferably added to a medium in concentrations of from about 0.005 to 10g/l, more preferably from 0.1 to 10g/l. The alanine to be added may be any of D- or L-optical isomers and a racemate.
Tissue culture according to the present invention can be performed either by static culture using a solid medium or by shake culture using a liquid medium. The solid medium includes a medium containing about 0.8% by weight of agar and a Murashige-Skoog medium containing 0.2% by weight of guaran. The culturing may be in either a bright room or a dark room. […]

saffron ovary = assay: Tissue culture of saffron ovary in MS medium with alanine; visual rating of stigma-like tissue (Example 3); conditions: BA 10 ppm, 7 weeks, scale 0-10
Description: as §1, §2, §3, §4
The ovary was subjected to static culture at 25° C. in a dark room. Production of a stigma-like tissue was recognized in the cultures in about 4 weeks at the soonest. In 7 weeks, the stigma-like tissue grew and assumed a red color, indicating considerable production of the saffron pigment.
as §5

C[C@H](N)C(=O)O (racemic) [Alanine, alanine]
Relative Color Density of Stigma-Like Tissue Containing Saffron Pigment ([1]; alanine 0.01 g/l, NAA 1.0 ppm): 6
Relative Production of Stigma-Like Tissue Containing Saffron Pigment ([1]; alanine 0.01 g/l, NAA 1.0 ppm): 4
Relative Color Density of Stigma-Like Tissue Containing Saffron Pigment ([1]; alanine 0.1 g/l, NAA 0.1 ppm): 7
Relative Production of Stigma-Like Tissue Containing Saffron Pigment ([1]; alanine 0.1 g/l, NAA 0.1 ppm): 5
Relative Color Density of Stigma-Like Tissue Containing Saffron Pigment ([1]; alanine 0.1 g/l, NAA 1.0 ppm): 7
Relative Production of Stigma-Like Tissue Containing Saffron Pigment ([1]; alanine 0.1 g/l, NAA 1.0 ppm): 5
Relative Color Density of Stigma-Like Tissue Containing Saffron Pigment ([1]; alanine 1.0 g/l, NAA 0.1 ppm): 7
Relative Production of Stigma-Like Tissue Containing Saffron Pigment ([1]; alanine 1.0 g/l, NAA 0.1 ppm): 6
Relative Color Density of Stigma-Like Tissue Containing Saffron Pigment ([1]; alanine 1.0 g/l, NAA 1.0 ppm): 7
Relative Production of Stigma-Like Tissue Containing Saffron Pigment ([1]; alanine 1.0 g/l, NAA 1.0 ppm): 6
Relative Color Density of Stigma-Like Tissue Containing Saffron Pigment ([1]; alanine 5.0 g/l, NAA 0.1 ppm): 7
Relative Production of Stigma-Like Tissue Containing Saffron Pigment ([1]; alanine 5.0 g/l, NAA 0.1 ppm): 6
Relative Color Density of Stigma-Like Tissue Containing Saffron Pigment ([1]; alanine 5.0 g/l, NAA 1.0 ppm): 7
Relative Production of Stigma-Like Tissue Containing Saffron Pigment ([1]; alanine 5.0 g/l, NAA 1.0 ppm): 6
quantities of stigma-like tissue and the pigment [2]: larger quantities of stigma-like tissue and the pigment
Relative Color Density of Stigma-Like Tissue Containing Saffron Pigment (saffron ovary; alanine 0.005 g/l, NAA 0.1 ppm): 8
Relative Production of Stigma-Like Tissue Containing Saffron Pigment (saffron ovary; alanine 0.005 g/l, NAA 0.1 ppm): 4
Relative Color Density of Stigma-Like Tissue Containing Saffron Pigment (saffron ovary; alanine 0.005 g/l, NAA 1.0 ppm): 8
Relative Production of Stigma-Like Tissue Containing Saffron Pigment (saffron ovary; alanine 0.005 g/l, NAA 1.0 ppm): 4
Relative Color Density of Stigma-Like Tissue Containing Saffron Pigment (saffron ovary; alanine 0.01 g/l, NAA 0.1 ppm): 8
Relative Production of Stigma-Like Tissue Containing Saffron Pigment (saffron ovary; alanine 0.01 g/l, NAA 0.1 ppm): 5
Relative Color Density of Stigma-Like Tissue Containing Saffron Pigment (saffron ovary; alanine 0.01 g/l, NAA 1.0 ppm): 8
Relative Production of Stigma-Like Tissue Containing Saffron Pigment (saffron ovary; alanine 0.01 g/l, NAA 1.0 ppm): 5
Relative Color Density of Stigma-Like Tissue Containing Saffron Pigment (saffron ovary; alanine 0.1 g/l, NAA 0.1 ppm): 9
Relative Production of Stigma-Like Tissue Containing Saffron Pigment (saffron ovary; alanine 0.1 g/l, NAA 0.1 ppm): 5
Relative Color Density of Stigma-Like Tissue Containing Saffron Pigment (saffron ovary; alanine 0.1 g/l, NAA 1.0 ppm): 9
Relative Production of Stigma-Like Tissue Containing Saffron Pigment (saffron ovary; alanine 0.1 g/l, NAA 1.0 ppm): 6
Relative Color Density of Stigma-Like Tissue Containing Saffron Pigment (saffron ovary; alanine 1.0 g/l, NAA 0.1 ppm): 9
Relative Production of Stigma-Like Tissue Containing Saffron Pigment (saffron ovary; alanine 1.0 g/l, NAA 0.1 ppm): 7
Relative Color Density of Stigma-Like Tissue Containing Saffron Pigment (saffron ovary; alanine 1.0 g/l, NAA 1.0 ppm): 9
Relative Production of Stigma-Like Tissue Containing Saffron Pigment (saffron ovary; alanine 1.0 g/l, NAA 1.0 ppm): 8
Relative Color Density of Stigma-Like Tissue Containing Saffron Pigment (saffron ovary; alanine 5.0 g/l, NAA 0.1 ppm): 9
Relative Production of Stigma-Like Tissue Containing Saffron Pigment (saffron ovary; alanine 5.0 g/l, NAA 0.1 ppm): 6
Relative Color Density of Stigma-Like Tissue Containing Saffron Pigment (saffron ovary; alanine 5.0 g/l, NAA 1.0 ppm): 8
Relative Production of Stigma-Like Tissue Containing Saffron Pigment (saffron ovary; alanine 5.0 g/l, NAA 1.0 ppm): 6
Relative Color Density of Stigma-Like Tissue Containing Saffron Pigment (saffron ovary; alanine 10.0 g/l, NAA 0.1 ppm): 8
Relative Production of Stigma-Like Tissue Containing Saffron Pigment (saffron ovary; alanine 10.0 g/l, NAA 0.1 ppm): 5
Relative Color Density of Stigma-Like Tissue Containing Saffron Pigment (saffron ovary; alanine 10.0 g/l, NAA 1.0 ppm): 8
Relative Production of Stigma-Like Tissue Containing Saffron Pigment (saffron ovary; alanine 10.0 g/l, NAA 1.0 ppm): 5
Relative Color Density of Stigma-Like Tissue Containing Saffron Pigment (saffron ovary; alanine 20.0 g/l, NAA 0.1 ppm): 8
Relative Production of Stigma-Like Tissue Containing Saffron Pigment (saffron ovary; alanine 20.0 g/l, NAA 0.1 ppm): 3
Relative Color Density of Stigma-Like Tissue Containing Saffron Pigment (saffron ovary; alanine 20.0 g/l, NAA 1.0 ppm): 7
Relative Production of Stigma-Like Tissue Containing Saffron Pigment (saffron ovary; alanine 20.0 g/l, NAA 1.0 ppm): 4
